How the values were obtained:
Test in all cases: Paper disk method, enhancing action for activities of azole antifungal agents
Type in all cases: cell-based
[1] = tested on: fluconazole resistant Candida albicans ATCC 64550; conditions: 24 hours; for Inhibition activity (inhibition ring mm) C. albicans ATCC 64550 GYF / Transparency of the inhibition ring C. albicans ATCC 64550 GYF: fluconazole 30 μg/ml; for Inhibition activity (inhibition ring mm) C. albicans ATCC 64550 GYM / Transparency of the inhibition ring C. albicans ATCC 64550 GYM: miconazole 0.15 μg/ml
Method: (§1) Test organisms used were Candida albicans ATCC 64548, fluconazole resistant Candida albicans ATCC 64550 and Aspergillus niger ATCC 6275. Candida spp. were cultured in Waksman broth (glucose 2.0%, peptone 0.5%, dry yeast 0.3%, meat extract 0.5%, NaCl 0.5% and CaCO3 0.3%, pH 7.0) at 27° C. for 40 hours, then 0.1% thereof was inoculated on GY agar medium (glucose 1.0%, yeast extract 0.5% and agar 0.8%, pH 6.0). Spore suspension 0.2% of Aspergillus niger ATCC 6275 was inoculated on GY agar medium.
(§2) Azole antifungal agents used were miconazole (Sigma Inc., the U.S.) and fluconazole (ICN Pharmaceuticals, Inc., the U.S.), and were added at concentrations without affecting growth on each test organisms follows.
Candida albicans ATCC 64550: miconazole 0.15 μg/ml or fluconazole 30 μg/ml.
(§3) In the above medium, a medium added with miconazole to GY medium (control) is designated as GYM, and a medium added with fluconazole is designated as GYF. Activities were assessed by means of paper disk method (thickness: 8 mm, ADVANTEC MFS INC., Japan). Diameter of inhibition ring is expressed with mm unit after culturing Candida spp. for 24 hours and Aspergillus niger ATCC 6275 for 48 hours. Transparency of the inhibition ring is assessed with 5 degrees of A, B, C, D and E (transparence<A<B<C<D<E<opaque).

[2] = tested on: Aspergillus niger ATCC 6275; conditions: 48 hours; for Inhibition activity (inhibition ring mm) A. niger ATCC 6275 GYF / Transparency of the inhibition ring A. niger ATCC 6275 GYF: fluconazole 10 μg/ml; for Inhibition activity (inhibition ring mm) A. niger ATCC 6275 GYM / Transparency of the inhibition ring A. niger ATCC 6275 GYM: miconazole 0.1 μg/ml
Method: as §1, §2
Aspergillus niger ATCC 6275: miconazole 0.1 μg/ml or fluconazole 10 μg/ml.
as §3

[3] = tested on: Candida albicans ATCC 64548; conditions: GYM, miconazole 0.03 μg/ml, 24 hours
Method: as §1, §2
Candida albicans ATCC 64548: miconazole 0.03 μg/ml or fluconazole 0.5 μg/ml.
as §3

[4] = 50 μg/8 mm disk, GY medium (control, no azole)

Structure (SMILES)	Inhibition activity (inhibition ring mm) C. albicans ATCC 64550 GYF ([1]; 50 μg/8 mm disk) [mm]	Transparency of the inhibition ring C. albicans ATCC 64550 GYF ([1]; 50 μg/8 mm disk)	Inhibition activity (inhibition ring mm) C. albicans ATCC 64550 GYM ([1]; 50 μg/8 mm disk) [mm]	Transparency of the inhibition ring C. albicans ATCC 64550 GYM ([1]; 50 μg/8 mm disk)	Inhibition activity (inhibition ring mm) A. niger ATCC 6275 GYF ([2]; 10 μg/8 mm disk) [mm]	Transparency of the inhibition ring A. niger ATCC 6275 GYF ([2]; 10 μg/8 mm disk)	Inhibition activity (inhibition ring mm) A. niger ATCC 6275 GYM ([2]; 10 μg/8 mm disk) [mm]	Transparency of the inhibition ring A. niger ATCC 6275 GYM ([2]; 10 μg/8 mm disk)	Inhibition activity (inhibition ring mm) A. niger ATCC 6275 GYF ([2]; 50 μg/8 mm disk) [mm]	Transparency of the inhibition ring A. niger ATCC 6275 GYF ([2]; 50 μg/8 mm disk)	Inhibition activity (inhibition ring mm) A. niger ATCC 6275 GYM ([2]; 50 μg/8 mm disk) [mm]	Transparency of the inhibition ring A. niger ATCC 6275 GYM ([2]; 50 μg/8 mm disk)	Inhibition activity (inhibition ring mm) C. albicans ATCC 64548 GYM ([3]; 50 μg/8 mm disk) [mm]	Transparency of the inhibition ring C. albicans ATCC 64548 GYM ([3]; 50 μg/8 mm disk)	further results
CCC1OC1(C)C1OC(=O)C(C)C(OC2CC(C)(OC)C(OS(=O)(=O)c3ccccc3)C(C)O2)C(C)C(OC2OC(C)CC(N(C)C)C2OC(C)=O)C2(C)CC(C)=C(O2)C1C (stereo not shown) [Compound 774, 2′-O-acetyl-4″-O-benzenesulfonyl-12,13-epoxy-8,9-Anhydro-pseudoerythromycin A 6,9-hemiketal]	17	A (Growth of test organism was inhibited 95% or more.)	17	A (Growth of test organism was inhibited 95% or more.)	14	E (Growth of test organism was inhibited 35% or less.)	13	E (Growth of test organism was inhibited 35% or less.)	17	E (Growth of test organism was inhibited 35% or less.)	18	D (Growth of test organism was inhibited 35% or more and 55% or less.)			Inhibition activity (inhibition ring mm) C. albicans ATCC 64550 GYF ([1]; 10 μg/8 mm disk): 13 mm; Transparency of the inhibition ring C. albicans ATCC 64550 GYF ([1]; 10 μg/8 mm disk): A (Growth of test organism was inhibited 95% or more.); Inhibition activity (inhibition ring mm) C. albicans ATCC 64550 GYM ([1]; 10 μg/8 mm disk): 14 mm; Transparency of the inhibition ring C. albicans ATCC 64550 GYM ([1]; 10 μg/8 mm disk): A (Growth of test organism was inhibited 95% or more.)
CCC1OC1(C)C1OC(=O)C(C)C(OC2CC(C)(OC)C(OS(=O)(=O)Cc3ccccc3)C(C)O2)C(C)C(OC2OC(C)CC(N(C)C)C2O)C2(C)CC(C)=C(O2)C1C (stereo not shown) [Compound 780, 4″-O-benzylsulfonyl-12,13-epoxy-8,9-anhydro-pseudoerythromycin A. 6,9-hemiketal]	14	C (Growth of test organism was inhibited 55% or more and 75% or less.)	12	C (Growth of test organism was inhibited 55% or more and 75% or less.)	11	E (Growth of test organism was inhibited 35% or less.)	14	E (Growth of test organism was inhibited 35% or less.)	12	E (Growth of test organism was inhibited 35% or less.)	14	E (Growth of test organism was inhibited 35% or less.)			Inhibition activity (inhibition ring mm) A. niger ATCC 6275 GY [2, 4]: 12 mm; Transparency of the inhibition ring A. niger ATCC 6275 GY [2, 4]: E (Growth of test organism was inhibited 35% or less.)
CCC1OC(=O)C(C)C(OC2CC(C)(OC)C(O)C(C)O2)C(C)C(OC2OC(C)CC(N(C)CCN(C)C3CC(C)OC(OC4C(C)C(OC5CC(C)(OC)C(O)C(C)O5)C(C)C(=O)OC(CC)C(C)(O)C(O)C(C)C(=O)C(C)CC4(C)O)C3O)C2O)C(C)(O)CC(C)C(=O)C(C)C(O)C1(C)O (stereo not shown) [Compound 752, 3′-de-N-methyl-3′-N-{2-amino-(3′-de-N-methyl-erythromycin A)}ethyl-erythromycin A]									17	E (Growth of test organism was inhibited 35% or less.)					Inhibition activity (inhibition ring mm) C. albicans ATCC 64548 GYM ([3]; 100 μg/8 mm disk): 12 mm; Transparency of the inhibition ring C. albicans ATCC 64548 GYM ([3]; 100 μg/8 mm disk): E (Growth of test organism was inhibited 35% or less.)
CCC1OC1(C)C1OC(=O)C(C)C(OC2CC(C)(OC)C(OS(=O)(=O)Cc3ccccc3)C(C)O2)C(C)C(OC2OC(C)CC(N(C)C)C2OC(C)=O)C2(C)CC(C)=C(O2)C1C (stereo not shown) [Compound 775, 2′-O-acetyl-4″-O-benzylsulfonyl-12,13-epoxide-8,9-anhydro-pseudoerythromycin A. 6,9-hemiketal]					16	E (Growth of test organism was inhibited 35% or less.)			16	E (Growth of test organism was inhibited 35% or less.)	16	D (Growth of test organism was inhibited 35% or more and 55% or less.)	10	E (Growth of test organism was inhibited 35% or less.)	
CCC1OC(=O)C(C)C(OC2CC(C)(OC)C(O)C(C)O2)C(C)C(OC2OC(C)CC(N(C)C)C2O)C(C)(O)CC(C)C(=NOCC=CCN2CCN(CC=CCON=C3C(C)CC(C)(O)C(OC4OC(C)CC(N(C)C)C4O)C(C)C(OC4CC(C)(OC)C(O)C(C)O4)C(C)C(=O)OC(CC)C(C)(O)C(O)C3C)CC2)C(C)C(O)C1(C)O (stereo not shown) [Compound 760, 9(E)-4-piperazine-{N-4-(9(E)-oxime-erythromycin A-2(E)butenyl)}-2-butenyloxime-erythromycin A]					15	E (Growth of test organism was inhibited 35% or less.)			16	E (Growth of test organism was inhibited 35% or less.)			14	D (Growth of test organism was inhibited 35% or more and 55% or less.)	Inhibition activity (inhibition ring mm) C. albicans ATCC 64548 GYM ([3]; 10 μg/8 mm disk): 10 mm; Transparency of the inhibition ring C. albicans ATCC 64548 GYM ([3]; 10 μg/8 mm disk): E (Growth of test organism was inhibited 35% or less.)
CC[C@H]1OC(=O)[C@H](C)[C@@H](O[C@H]2C[C@@](C)(OC)[C@@H](O)[C@H](C)O2)[C@H](C)[C@@H](O[C@@H]2O[C@H](C)C[C@H](N(C)C/C=C/CO/N=C3\[C@H](C)C[C@@](C)(O)[C@H](O[C@@H]4O[C@H](C)C[C@H](N(C)C)[C@H]4O)[C@@H](C)[C@H](O[C@H]4C[C@@](C)(OC)[C@@H](O)[C@H](C)O4)[C@@H](C)C(=O)O[C@H](CC)[C@@](C)(O)[C@H](O)[C@H]3C)[C@H]2O)[C@](C)(O)C[C@@H](C)C(=O)[C@H](C)[C@@H](O)[C@]1(C)O [Compound 765, 3′-de-N-methyl-3′-N-{4-9(E)oxime-erythro-mycin A}-2(E)-butenyl-erythromycin A]					14	E (Growth of test organism was inhibited 35% or less.)			21	E (Growth of test organism was inhibited 35% or less.)			14	E (Growth of test organism was inhibited 35% or less.)	Inhibition activity (inhibition ring mm) A. niger ATCC 6275 GYM ([2]; 100 μg/8 mm disk): 14 mm; Transparency of the inhibition ring A. niger ATCC 6275 GYM ([2]; 100 μg/8 mm disk): E (Growth of test organism was inhibited 35% or less.)
